# Experiments:
# [1] = In vivo detection of RPCs in muscle tissue (gamma imaging after i.v. 99mTc gluceptate); details: rats, rectus femoris muscle injected with RPC; 1 hour after i.v. injection of 0.5 mCi 99mTc gluceptate
# Procedure: RPCs having the sequences GGGCGGGCGGGC (SEQ ID NO: 13) and GGGCGGGC (SEQ ID NO: 14) were dissolved in sterile saline to give a concentration of 1 μM thiol (i.e., the —SH function groups of cysteine residues). 100 μl of this solution was injected into the rectus femoris muscles of anesthetized rats. Ten minutes after injection, 0.5 mCi of ^99mTc gluceptate-[bis(oxotechnetate(v)glucoheptonate] anion was injected via intravenous catheter. The animals were imaged at 10 minutes and at 1 hour after the injection of the isotope. It was suspected that Tc glucoheptonate can permeate into the interstitium and be taken up non-specifically (e.g., by pinocytosis) by resident cells, thus creating background activity.
# Nonetheless, the radioactivity that had accumulated in the injected muscle 1 hour after injection with the RPC containing three consecutive GGGC repeats (SEQ ID NO: 13) or two consecutive GGGC repeats (SEQ ID NO: 14) were 3- or 2-fold higher, respectively, than the radioactivity that had accumulated in the contralateral (control) muscle at that time. No differences in radioactivity accumulated in injected vs. control muscles were detected in animals injected with saline, or an RPC pretreated with N-ethylmaleimide to block oxotechnetate-binding sites.
# [2] = Labeling of RPC with 99mTc-glucoheptonate and stability of the metal-RPC complex by reverse-phase HPLC; type: binding
# Procedure: The tetrapeptide WGGC (SEQ ID NO: 1) was incubated with ^99mTc-gluccheptonate. […] The label was ascertained to be stably associated with the peptide for at least 24 hours as determined by reverse-phase high performance liquid chromatography (HPLC) (see, FIG. 7).
# FIGS. 6 and 7 are the HPLC traces corresponding to the binding 30 minutes and 24 hours post-injection, respectively. In both traces, the bold line represents radioactivity and the thin line represents absorbance. The naked ^99mTc-glucoheptonate has a retention time of 2 minutes, while the RPC-Tc complex has a retention time of 5 to 9 minutes.
"share of total integral at 2 minutes (retention time of naked 99mTc-glucoheptonate) ([2]; 24 hours, HPLC radioactivity trace (FIG. 7))",time the label is stably associated with the peptide ([2]; reverse-phase HPLC),Substance,radioactivity accumulated in the injected muscle vs. the contralateral (control) muscle [1],"radiation at 2 minutes (retention time of naked 99mTc-glucoheptonate) ([2]; 30 minutes, HPLC radioactivity trace (FIG. 6))","labeling of the peptide ([2]; incubated with 99mTc-glucoheptonate, within 30 minutes)"
–,–,"GGGCGGGC [SEQ ID NO: 14, RPC containing two consecutive GGGC repeats]",2 fold,–,–
–,–,GGGCGGGCGGGC [SEQ ID NO: 13],3 fold,–,–
0.468%,at least 24 hours,WGGC,–,no radiation is observed above the baseline,99%

# From patent US20020142297A1, “Compositions and methods for imaging gene expression” (The General Hospital Corporation, a Massachusetts …, priority 1997, published 2002)
